Assay results reported in article PMC4871426, “The Regulation of para-Nitrophenol Degradation in Pseudomonas putida DLL-E4” (PLoS ONE, 2016).

Tests used:
PnpC1C2 = molecular target: T1, PnpC1C2 (Pseudomonas putida, UniProt C6FI41); assay: UV spectral change, absorption increase at […] nm; type: biochemical; conditions: conditions as in an earlier paper
T1 construct: gene pnpC2; two-subunit complex, C-terminal His tag, expressed in E. coli BL21(DE3), Ni-NTA purified; with hydroquinone dioxygenase alpha subunit (hydroquinone 1,2-dioxygenase small subunit)
T1 sequence (C6FI41 1-339): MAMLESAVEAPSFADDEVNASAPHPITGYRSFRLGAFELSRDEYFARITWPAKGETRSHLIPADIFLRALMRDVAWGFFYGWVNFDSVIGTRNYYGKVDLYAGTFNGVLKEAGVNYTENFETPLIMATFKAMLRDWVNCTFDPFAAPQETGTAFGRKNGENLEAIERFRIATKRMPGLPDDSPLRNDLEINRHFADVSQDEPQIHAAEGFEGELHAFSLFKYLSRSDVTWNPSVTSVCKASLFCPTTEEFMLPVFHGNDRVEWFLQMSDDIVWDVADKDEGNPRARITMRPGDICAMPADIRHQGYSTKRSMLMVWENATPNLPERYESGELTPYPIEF
T1 sequence (C6FI40 1-164 partner): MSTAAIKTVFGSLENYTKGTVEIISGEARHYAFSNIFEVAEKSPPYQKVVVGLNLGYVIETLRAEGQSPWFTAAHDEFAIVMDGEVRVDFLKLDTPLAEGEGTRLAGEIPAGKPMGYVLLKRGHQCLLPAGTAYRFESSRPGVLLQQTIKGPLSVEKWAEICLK

PnpA = molecular target: T2, PnpA (Pseudomonas putida, UniProt C6FI48); assay: colour change of PNP oxidation by purified enzyme; type: biochemical; conditions: conditions as in an earlier paper
T2 construct: His-tagged (pET-pnpAhis), expressed in E. coli BL21(DE3), purified
T2 sequence (C6FI48 1-418): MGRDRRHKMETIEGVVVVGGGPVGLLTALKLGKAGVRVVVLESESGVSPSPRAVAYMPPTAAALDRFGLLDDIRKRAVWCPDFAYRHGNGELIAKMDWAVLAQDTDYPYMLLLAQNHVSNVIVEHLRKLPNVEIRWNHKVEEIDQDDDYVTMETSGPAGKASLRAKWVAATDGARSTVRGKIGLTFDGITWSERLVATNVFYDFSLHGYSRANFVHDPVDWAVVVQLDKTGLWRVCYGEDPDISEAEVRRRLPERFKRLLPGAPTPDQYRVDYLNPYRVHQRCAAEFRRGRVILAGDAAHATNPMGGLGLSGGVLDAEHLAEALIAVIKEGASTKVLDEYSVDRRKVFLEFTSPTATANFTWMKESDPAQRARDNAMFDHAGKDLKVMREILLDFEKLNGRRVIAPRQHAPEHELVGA

| SMILES | UV spectral change, absorption increase at 320 nm (PnpC1C2) | colour change of PNP oxidation by purified enzyme (PnpA) |
| --- | --- | --- |
| Oc1ccc(O)cc1 [hydroquinone] | PnpC1C2 and PnpC1C2b both transformed HQ into γ-hydroxymuconic semialdehyde in vitro |  |
| O=[N+]([O-])c1ccc(O)cc1 [para-nitrophenol] |  | only PnpA had the ability to oxidize PNP |
